Measured values reported in patent publication US5106859A, “Certain 1,3,4-thiadiazole derivatives and anti-ulcer agent comprising said derivatives as active ingredient” (Tsumura & Co., priority 1988, dated 1992).

Test system: mucosa of the stomach
Assay: Anti-ulcer test by oral administration (hydrochloric acid/ethanol-induced stomach mucosa damage)
Format: in vivo, male rats of the Wistar strain
Conditions: 3 mg/kg orally in 0.5% CMC, 30 minutes before 150 M hydrochloric acid/60% ethanol; male Wistar rats, 8 per group; 1 hour after hydrochloric acid/ethanol
Protocol: To male rats of the Wistar strain (each group consisting of 8 rats) having a body weight of 160 to 180 g, which had been fasted for 24 hours, was orally administered 3 mg/kg of the compound of formula I in the form of a suspension in a 0.5% solution of carboxymethyl cellulose (CMC), and after 30 minutes, 1 ml/200 of […] hydrochloric acid/60% ethanol was orally administered to the rats. One hour after the administration of the hydrochloric acid/ethanol, the rats were subjected to laparotomy, and the length of the damaged part formed on the mucosa of the stomach was compared, as the mucosa damage coefficient, with that in the control group. Only the 0.5% solution of CMC not containing the compound of formula I was orally administered to the control group. The inhibition ratio was calculated according to the following formula: [formula] wherein A represents the value of the control group and B represents the value of the group to which the compound of formula I was administered.

| SMILES | Inhibition Ratio (mucosa damage coefficient) [%] |
| --- | --- |
| CCOC(=O)c1ccc(CSc2nnc(-c3cccnc3)s2)nc1 [Example 1, 2-[(5-Ethoxycarbonylpyridin-2-yl)methylthio]-5-(3-pyridyl)-1,3,4-thiadiazole] | 42.9 |
| CCOC(=O)c1ccc(C[S+]([O-])c2nnc(-c3cccnc3)s2)nc1 (centres unmarked) [Example 2, 2-[(5-Ethoxycarbonylpyridin-2-yl)methylsulfinyl]-5-(3-pyridyl)-1,3,4-thiadiazole] | 91.5 |
